# Data taken from patent publication US7259161B2, “Compositions useful as inhibitors of JAK and other protein kinases” (Vertex Pharmaceuticals Incorporated, priority 2002, dated 2007).
# pKi: −log10 of the molar value.
# Molecular target: T1, JAK3 (Homo sapiens, UniProt P52333)
# T1 sequence (P52333 1-1124): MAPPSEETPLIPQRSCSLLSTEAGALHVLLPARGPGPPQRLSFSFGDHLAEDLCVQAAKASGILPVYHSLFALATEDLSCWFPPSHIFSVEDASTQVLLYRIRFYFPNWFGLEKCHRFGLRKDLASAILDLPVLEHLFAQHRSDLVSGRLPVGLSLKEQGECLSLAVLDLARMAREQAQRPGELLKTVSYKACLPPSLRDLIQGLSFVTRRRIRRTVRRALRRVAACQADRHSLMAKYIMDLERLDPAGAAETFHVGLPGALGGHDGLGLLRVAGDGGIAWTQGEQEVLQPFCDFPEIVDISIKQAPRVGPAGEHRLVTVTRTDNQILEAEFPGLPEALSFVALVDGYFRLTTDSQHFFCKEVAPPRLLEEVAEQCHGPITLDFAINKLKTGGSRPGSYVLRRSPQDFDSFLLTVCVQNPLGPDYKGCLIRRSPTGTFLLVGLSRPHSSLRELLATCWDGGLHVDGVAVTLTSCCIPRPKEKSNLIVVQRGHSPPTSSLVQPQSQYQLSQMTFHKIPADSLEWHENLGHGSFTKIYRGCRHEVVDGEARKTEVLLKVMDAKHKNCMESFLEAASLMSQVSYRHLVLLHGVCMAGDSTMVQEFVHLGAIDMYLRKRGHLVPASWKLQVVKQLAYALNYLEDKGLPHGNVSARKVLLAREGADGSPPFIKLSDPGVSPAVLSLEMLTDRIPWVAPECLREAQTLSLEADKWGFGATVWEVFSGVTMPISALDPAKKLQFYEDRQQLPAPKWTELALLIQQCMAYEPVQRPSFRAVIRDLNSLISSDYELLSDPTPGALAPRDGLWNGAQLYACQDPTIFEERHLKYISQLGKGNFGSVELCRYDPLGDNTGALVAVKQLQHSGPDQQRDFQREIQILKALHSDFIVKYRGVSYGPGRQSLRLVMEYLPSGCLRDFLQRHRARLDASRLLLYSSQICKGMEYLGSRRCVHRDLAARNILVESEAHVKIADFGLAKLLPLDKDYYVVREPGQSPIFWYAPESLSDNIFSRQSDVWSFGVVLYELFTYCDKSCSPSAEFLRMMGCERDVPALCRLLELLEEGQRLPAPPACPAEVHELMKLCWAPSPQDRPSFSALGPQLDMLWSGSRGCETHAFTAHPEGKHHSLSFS
# Test: JAK3 inhibition assay
# Type: biochemical
# Conditions: 2 μM ATP, ELISA read at 450 nm
# Method: Compounds were screened for their ability to inhibit JAK3 according to the method described by G. R. Brown, et al, Bioorg. Med. Chem. Lett. 2000, vol. 10, pp 575–579 in the following manner. Into Maxisorb plates, previously coated at 4° C. with Poly (Glu, Ala, Tyr) 6:3:1 then washed with phosphate buffered saline 0.05% and Tween (PBST), was added 2 μM ATP, 5 MM MgCl2, and a solution of compound in DMSO. The reaction was started with JAK enzyme and the plates incubated for 60 minutes at 30° C. The plates were then washed with PBST, 100 μL HRP-Conjugated 4G10 antibody was added, and the plate incubated for 90 minutes at 30° C. The plate was again washed with PBST, 100 μL TMB solution is added, and the plates were incubated for another 30 minutes at 30° C. Sulfuric acid (100 μL of 1M) was added to stop the reaction and the plate is read at 450 nm to obtain the optical densities for analysis to determine Ki values.
row,SMILES,pKi
1,CN1C(=O)COc2ccc(-c3ccnc(Nc4ccccc4)n3)cc21 [IVa-1],> 6.00
2,Cc1cc(C)cc(Nc2nccc(-c3ccc4c(c3)N(C)C(=O)CO4)n2)c1 [IVa-6],> 6.00
3,COc1cc(Nc2nccc(-c3ccc4c(c3)N(C)C(=O)CO4)n2)cc(OC)c1 [IVa-7],> 6.00
4,O=C1COc2ccc(-c3ccnc(Nc4ccc(F)cc4)n3)cc2N1 [IVa-11],> 5.30
5,CN1C(=O)COc2ccc(-c3ccnc(Nc4cccc(S(N)(=O)=O)c4)n3)cc21 [IVa-22],> 6.00
6,CN1C(=O)COc2ccc(-c3ccnc(Nc4cccc(C#N)c4)n3)cc21 [IVa-26],> 5.30
7,CN1C(=O)COc2ccc(-c3ccnc(Nc4cccc(O)c4)n3)cc21 [IVa-27],> 6.00
8,O=C1COc2ccc(-c3ccnc(Nc4ccccc4)n3)cc2N1CCN1CCOCC1 [IVa-29],> 5.30
9,O=C1COc2ccc(-c3ccnc(Nc4cccc(Cl)c4)n3)cc2N1CCN1CCOCC1 [IVa-31],> 5.30
10,O=C1COc2ccc(-c3ccnc(Nc4cccc(O)c4)n3)cc2N1CCN1CCOCC1 [IVa-32],> 5.30
11,COc1cccc(Nc2nccc(-c3ccc4c(c3)N(CCN3CCOCC3)C(=O)CO4)n2)c1 [IVa-36],> 5.30
12,O=C1COc2ccc(-c3ccnc(Nc4ccccc4)n3)cc2N1Cc1cccnc1 [IVa-41],> 5.30
13,O=C1COc2ccc(-c3ccnc(Nc4cccc(Cl)c4)n3)cc2N1Cc1cccnc1 [IVa-43],> 5.30
14,COc1cccc(Nc2nccc(-c3ccc4c(c3)N(Cc3cccnc3)C(=O)CO4)n2)c1 [IVa-45],> 5.30
15,N#Cc1cccc(Nc2nccc(-c3ccc4c(c3)N(Cc3cccnc3)C(=O)CO4)n2)c1 [IVa-47],> 5.30
16,O=C1COc2ccc(-c3ccnc(Nc4cccc(-c5ccccc5)c4)n3)cc2N1Cc1cccnc1 [IVa-48],> 5.30
17,NS(=O)(=O)c1cccc(Nc2nccc(-c3ccc4c(c3)N(Cc3cccnc3)C(=O)CO4)n2)c1 [IVa-50],> 5.30
18,NS(=O)(=O)c1ccc(Nc2nccc(-c3ccc4c(c3)N(Cc3cccnc3)C(=O)CO4)n2)cc1 [IVa-51],> 6.00
19,NC(=O)c1cccc(Nc2nccc(-c3ccc4c(c3)N(Cc3cccnc3)C(=O)CO4)n2)c1 [IVa-53],> 6.00
20,O=C1COc2ccc(-c3ccnc(Nc4cccc(F)c4)n3)cc2N1Cc1ccccn1 [IVa-55],> 5.30
21,O=C1COc2ccc(-c3ccnc(Nc4cccc(Cl)c4)n3)cc2N1Cc1ccccn1 [IVa-56],> 5.30
22,COc1cccc(Nc2nccc(-c3ccc4c(c3)N(Cc3ccccn3)C(=O)CO4)n2)c1 [IVa-57],> 6.00
23,COC(=O)c1cccc(Nc2nccc(-c3ccc4c(c3)N(Cc3ccccn3)C(=O)CO4)n2)c1 [IVa-58],> 5.30
24,O=C1COc2ccc(-c3ccnc(Nc4cccc(-c5ccccc5)c4)n3)cc2N1Cc1ccccn1 [IVa-59],> 5.30
25,O=C1COc2ccc(-c3ccnc(Nc4cccc(Oc5ccccc5)c4)n3)cc2N1Cc1ccccn1 [IVa-60],> 5.30

# The next lines start with the values.
row,pKi,SMILES
1,> 5.30,CN1C(=O)COc2ccc(-c3ccnc(Nc4cccc(F)c4)n3)cc21 [IVa-2]
2,> 6.00,Cc1cccc(Nc2nccc(-c3ccc4c(c3)N(C)C(=O)CO4)n2)c1 [IVa-3]
3,> 5.30,Cc1ccc(Nc2nccc(-c3ccc4c(c3)N(C)C(=O)CO4)n2)cc1 [IVa-4]
4,> 5.30,COc1ccc(Nc2nccc(-c3ccc4c(c3)N(C)C(=O)CO4)n2)cc1 [IVa-5]
5,> 5.30,O=C1COc2ccc(-c3ccnc(Nc4cccc(F)c4)n3)cc2N1 [IVa-10]
6,> 5.30,O=C1COc2ccc(-c3ccnc(Nc4ccc(Cl)cc4)n3)cc2N1 [IVa-13]
7,> 6.00,COc1cccc(Nc2nccc(-c3ccc4c(c3)NC(=O)CO4)n2)c1 [IVa-14]
8,> 6.00,Cc1ccccc1Nc1nccc(-c2ccc3c(c2)NC(=O)CO3)n1 [IVa-15]
9,> 6.00,NS(=O)(=O)c1cccc(Nc2nccc(-c3ccc4c(c3)NC(=O)CO4)n2)c1 [IVa-21]
10,> 6.00,CN1C(=O)COc2ccc(-c3ccnc(Nc4cccc(C(N)=O)c4)n3)cc21 [IVa-25]
11,> 6.00,COc1cccc(Nc2nccc(-c3ccc4c(c3)N(C)C(=O)CO4)n2)c1 [IVa-28]
12,> 5.30,O=C1COc2ccc(-c3ccnc(Nc4cccc(F)c4)n3)cc2N1CCN1CCOCC1 [IVa-30]
13,> 5.30,NS(=O)(=O)c1ccc(Nc2nccc(-c3ccc4c(c3)N(CCN3CCOCC3)C(=O)CO4)n2)cc1 [IVa-39]
14,> 6.00,O=C1COc2ccc(-c3ccnc(Nc4cccc(O)c4)n3)cc2N1Cc1cccnc1 [IVa-44]
15,> 5.30,COC(=O)c1cccc(Nc2nccc(-c3ccc4c(c3)N(Cc3cccnc3)C(=O)CO4)n2)c1 [IVa-46]
16,> 5.30,Cc1cc(C)cc(Nc2nccc(-c3ccc4c(c3)N(Cc3cccnc3)C(=O)CO4)n2)c1 [IVa-52]
17,> 5.30,O=C1COc2ccc(-c3ccnc(Nc4cccc(Cl)c4)n3)cc2N1Cc1ccncc1 [IVa-66]
18,> 5.30,NS(=O)(=O)c1cccc(Nc2nccc(-c3ccc4c(c3)N(Cc3ccncc3)C(=O)CO4)n2)c1 [IVa-70]
19,> 6.00,NS(=O)(=O)c1ccc(Nc2nccc(-c3ccc4c(c3)N(Cc3ccncc3)C(=O)CO4)n2)cc1 [IVa-71]
20,> 5.30,Cc1cc(C)cc(Nc2nccc(-c3ccc4c(c3)N(Cc3ccncc3)C(=O)CO4)n2)c1 [IVa-72]

# Molecular target: CDK-2/Cyclin A (Homo sapiens, UniProt P24941)
# Test: CDK2 inhibition assay (coupled enzyme assay)
# Type: biochemical
# Conditions: 100 μM ATP, 25 nM CDK-2/Cyclin A
# Method: Compounds were screened for their ability to inhibit CDK-2/Cyclin A using a standard coupled enzyme assay (Fox et al (1998) Protein Sci 7, 2249). Reactions were carried out in 100 mM HEPES pH 7.5, 10 mM MgCl2, 25 mM NaCl, 1 mM DTT and 1.5% DMSO. Final substrate concentrations in the assay were 100 μM ATP (Sigma chemicals) and 100 μM peptide (American Peptide, Sunnyvale, Calif.). Assays were carried out at 30° C. and 25 nM CDK-2/Cyclin A. Final concentrations of the components of the coupled enzyme system were 2.5 mM phosphoenolpyruvate, 350 μM NADH, 30 μg/ml pyruvate kinase and 10 μg/ml lactate dehydrogenase.
# An assay stock buffer solution was prepared containing all of the reagents listed above, with the exception of CDK-2/Cyclin A, DTT and the test compound of interest. 56 μl of the test reaction was placed in a 384 well plate followed by addition of 1 μl of 2 mM DMSO stock containing the test compound (final compound concentration 30 μM). The plate was preincubated for ˜10 minutes at 30° C. and the reaction initiated by addition of 10 μl of enzyme (final concentration 25 nM). Rates of reaction were obtained using a BioRad Ultramark plate reader (Hercules, Calif.) over a 5 minute read time at 30° C. Compounds showing >50% inhibition versus standard wells containing DMSO, but no compound, were titrated and IC50's determined using a similar protocol.
row,SMILES,pKi
1,CN1C(=O)COc2ccc(-c3ccnc(Nc4cccc(S(N)(=O)=O)c4)n3)cc21 [IVa-22],> 6.00

# Molecular target: JNK3 (Homo sapiens, UniProt P53779)
# Test: JNK3 inhibition assay (spectrophotometric coupled-enzyme assay)
# Type: biochemical
# Conditions: 10 μM ATP, 10 nM activated JNK3
# Method: Compounds were assayed for the inhibition of JNK3 by a spectrophotometric coupled-enzyme assay. In this assay, a fixed concentration of activated JNK3 (10 nM) was incubated with various concentrations of a potential inhibitor dissolved in DMSO for 10 minutes at 30° C. in a buffer containing 0.1 M HEPES buffer, pH 7.5, containing 10 mM MgCl2, 2.5 mM phosphoenolpyruvate, 200 μM NADH, 150 μg/mL pyruvate kinase, 50 μg/mL lactate dehydrogenase, and 200 μM EGF receptor peptide. The EGF receptor peptide is a phosphoryl acceptor in the JNK3-catalyzed kinase reaction. The reaction was initiated by the addition of 10 μM ATP and the assay plate is inserted into the spectrophotometer's assay plate compartment that was maintained at 30° C. The decrease of absorbance at 340 nm was monitored as a function of time. The rate data as a function of inhibitor concentration was fitted to competitive inhibition kinetic model to determine the Ki.
# JNK3, sequence (P53779 whole entry, species assumed): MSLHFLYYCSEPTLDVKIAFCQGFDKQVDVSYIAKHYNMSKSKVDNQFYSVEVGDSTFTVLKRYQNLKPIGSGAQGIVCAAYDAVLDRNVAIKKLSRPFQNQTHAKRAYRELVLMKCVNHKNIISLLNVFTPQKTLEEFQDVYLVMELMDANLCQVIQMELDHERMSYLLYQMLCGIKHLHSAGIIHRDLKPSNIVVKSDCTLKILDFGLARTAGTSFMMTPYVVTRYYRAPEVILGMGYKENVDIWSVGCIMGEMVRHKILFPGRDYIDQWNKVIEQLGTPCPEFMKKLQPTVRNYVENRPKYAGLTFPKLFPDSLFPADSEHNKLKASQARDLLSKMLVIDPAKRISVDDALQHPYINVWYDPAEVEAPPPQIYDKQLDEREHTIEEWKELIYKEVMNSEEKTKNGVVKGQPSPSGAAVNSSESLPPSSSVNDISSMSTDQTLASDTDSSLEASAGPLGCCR
row,SMILES,pKi
1,CN1C(=O)COc2ccc(-c3ccnc(Nc4ccccc4)n3)cc21 [IVa-1],> 6.00
2,CN1C(=O)COc2ccc(-c3ccnc(Nc4cccc(S(N)(=O)=O)c4)n3)cc21 [IVa-22],> 6.00

# Further lines, results first:
row,pKi,SMILES
1,> 6.00,CN1C(=O)COc2ccc(-c3ccnc(Nc4cccc(F)c4)n3)cc21 [IVa-2]
2,> 6.00,Cc1cccc(Nc2nccc(-c3ccc4c(c3)N(C)C(=O)CO4)n2)c1 [IVa-3]
3,> 6.00,Cc1ccc(Nc2nccc(-c3ccc4c(c3)N(C)C(=O)CO4)n2)cc1 [IVa-4]
4,> 6.00,COc1ccc(Nc2nccc(-c3ccc4c(c3)N(C)C(=O)CO4)n2)cc1 [IVa-5]
